Source: patent publication US8865734B2 (priority 2010, dated 2014)
Values after ≈ are worked out from the molar mass of the structure shown.

Columns and labels:
[1] = system: in vitro grown Mycobacteria (M. tuberculosis); assay: QUM: Quantification of in vitro grown Mycobacteria (in vitro growth fluorescence assay); assay type: cell-based; settings: Mycobacterium tuberculosis; MIC, 80% bacterial growth inhibition; in vitro growth; read-out: QUM
Text: (§1) A 120,000 small molecule compound library was screened using a validated phenotypic cell-based assay (WO2010003533A2). Active compounds from the primary screen were confirmed via dose response in the intracellular (QIM) assay and an in vitro (QUM) assay, wherein the abbreviation “QIM” stands for Quantification of Intracellular Mycobacteria and the abbreviation “QUM” stands for Quantification of in vitro grown Mycobacteria. […] The MIC is the minimum concentration of compound required to obtain 80% bacterial growth inhibition.
(§2) The imidazopyridine compounds (scaffolds Ia and Ib; see Table 1) underwent derivatization according to the methods outlined below (Schemes 1-13). Resulting derivatives were examined for inhibitory activity (MIC) using the assays described above (Example 1) and the results are summarized in Table 1.

[2] = system: M. tuberculosis inside the host macrophage; assay: QIM: Quantification of Intracellular Mycobacteria (intracellular growth assay, phenotypic cell-based); settings: Mycobacterium tuberculosis; MIC, 80% bacterial growth inhibition; intracellular growth; read-out: QIM
Text: Accordingly, a phenotypic cell-based assay, suitable for high throughput screening, which allows for the search of compounds that would prevent M. tuberculosis multiplication inside the host macrophage was utilized (WO2010003533A2), overcoming many of the numerous and burdensome steps involved in previous methodologies (Arain et al., 1996).
as §1, §2

CCc1nc2ccc(Cl)cn2c1C(=O)NCc1ccc(-c2ccc(C)cc2)cc1 [Compound 86, 6-Chloro-2-ethyl-N-((4′-methylbiphenyl-4-yl)methyl)imidazo[1,2-a]pyridine-3-carboxamide]
MIC [1]: < 1 µM | MIC [2]: < 1 µM

CCc1nc2cc(Cl)ccn2c1C(=O)NCc1ccc(OCc2ccc(F)cc2)cc1 [Compound 203, 7-Chloro-2-ethyl-N-(4-(4-fluorobenzyloxy)benzyl)imidazo[1,2-a]pyridine-3-carboxamide]
MIC [1]: 1 to 20 µM (≈ 0.438 to 8.76 µg/mL) | MIC [2]: 1 to 20 µM (≈ 0.438 to 8.76 µg/mL)

CCc1nc2ccc(Cl)cn2c1C(=O)NCc1ccc(-c2cccc(C)c2)cc1 [Compound 85, 6-Chloro-2-ethyl-N-((3′-methylbiphenyl-4-yl)methyl)imidazo[1,2-a]pyridine-3-carboxamide]
MIC [1]: < 1 µM | MIC [2]: < 1 µM

CCc1nc2ccc(Cl)cn2c1C(=O)NCc1ccc(-c2ccc(C#N)cc2C)cc1 [Compound 131, 6-Chloro-N-((4′-cyano-2′-methylbiphenyl-4-yl)methyl)-2-ethylimidazo[1,2-a]pyridine-3-carboxamide]
MIC [1]: < 1 µM | MIC [2]: < 1 µM

Cc1nc2ccccn2c1C(=O)Nc1ccc(OCc2ccccc2)cc1 [Compound 7, N-(4-(Benzyloxy)phenyl)-2-methylimidazo[1,2-a]pyridine-3-carboxamide]
MIC [1]: > 20 µM | MIC [2]: > 20 µM

CCc1nc2cc(Cl)ccn2c1C(=O)NCc1ccc(OC(F)(F)F)cc1 [Compound 102, 7-Chloro-2-ethyl-N-(4-(trifluoromethoxy)benzyl)imidazo[1,2-a]pyridine-3-carboxamide]
MIC [1]: < 1 µM | MIC [2]: 1 to 20 µM (≈ 0.398 to 7.96 µg/mL)

CCc1nc2cc(Cl)ccn2c1C(=O)NCc1ccn(-c2ccc(F)cc2)n1 [Compound 236, 7-Chloro-2-ethyl-N-((1-(4-fluorophenyl)-1H-pyrazol-3-yl)methyl)imidazo[1,2-a]pyridine-3-carboxamide]
MIC [1]: 1 to 20 µM (≈ 0.398 to 7.96 µg/mL) | MIC [2]: > 20 µM

Cc1nc2c(C(F)(F)F)cccn2c1C(=O)NCc1ccccc1 [Compound 40, N-Benzyl-2-methyl-8-(trifluoromethyl)imidazo[1,2-a]pyridine-3-carboxamide]
MIC [1]: > 20 µM | MIC [2]: > 20 µM

CCc1nc2cc(Cl)ccn2c1C(=O)NCc1ccc(-c2ccco2)cc1 [Compound 137, 7-Chloro-2-ethyl-N-(4-(furan-2-yl)benzyl)imidazo[1,2-a]pyridine-3-carboxamide]
MIC [1]: 1 to 20 µM (≈ 0.38 to 7.6 µg/mL) | MIC [2]: < 1 µM

CCc1nc2cc(Cl)ccn2c1C(=O)NCc1ccc(-c2ccc(C)cc2)cc1 [Compound 98, 7-Chloro-2-ethyl-N-((4′-methylbiphenyl-4-yl)methyl)imidazo[1,2-a]pyridine-3-carboxamide]
MIC [1]: < 1 µM | MIC [2]: < 1 µM

CCc1nc2ccc(Cl)cn2c1C(=O)NCc1ccc(N2CCN(c3ccc(F)cc3)CC2)cc1 [Compound 113, 6-Chloro-2-ethyl-N-(4-(4-(4-fluorophenyl)piperazin-1-yl)benzyl)imidazo[1,2-a]pyridine-3-carboxamide]
MIC [1]: < 1 µM | MIC [2]: < 1 µM

CCc1nc2cc(Cl)ccn2c1C(=O)NCc1ccc(-c2ccc(C#N)cc2)cc1 [Compound 122, 7-Chloro-N-((4′-cyanobiphenyl-4-yl)methyl)-2-ethylimidazo[1,2-a]pyridine-3-carboxamide]
MIC [1]: < 1 µM | MIC [2]: < 1 µM

CCc1nc2cc(Cl)ccn2c1C(=O)NCc1ccc(N2CCC(C)CC2)cc1 [Compound 215, 7-Chloro-2-ethyl-N-(4-(4-methylpiperidin-1-yl)benzyl)imidazo[1,2-a]pyridine-3-carboxamide]
MIC [1]: < 1 µM | MIC [2]: < 1 µM

CCc1nc2cc(Cl)ccn2c1C(=O)NCc1ccc(-c2ccc(C(F)(F)F)cc2)cc1 [Compound 120, 7-Chloro-2-ethyl-N-((4′-(trifluoromethyl)biphenyl-4-yl)methyl)imidazo[1,2-a]pyridine-3-carboxamide]
MIC [1]: < 1 µM | MIC [2]: < 1 µM

CCc1nc2cc(Cl)ccn2c1C(=O)NCc1ccc(-c2ccc(C#N)cc2C)cc1 [Compound 132, 7-Chloro-N-((4′-cyano-2′-methylbiphenyl-4-yl)methyl)-2-ethylimidazo[1,2-a]pyridine-3-carboxamide]
MIC [1]: < 1 µM | MIC [2]: < 1 µM

CCc1nc2cc(Cl)ccn2c1C(=O)NCc1ccc(N2CCC(Oc3ccc(Cl)cc3)CC2)cc1 [Compound 163, 7-Chloro-N-(4-(4-(4-chlorophenoxy)piperidin-1-yl)benzyl)-2-ethylimidazo[1,2-a]pyridine-3-carboxamide]
MIC [1]: < 1 µM | MIC [2]: < 1 µM

CCc1nc2cc(Cl)ccn2c1C(=O)NCc1ccc(N2CCCCC2)cc1 [Compound 90, 7-Chloro-2-ethyl-N-(4-(piperidin-1-yl)benzyl)imidazo[1,2-a]pyridine-3-carboxamide]
MIC [1]: < 1 µM | MIC [2]: < 1 µM

CCc1nc2cc(Cl)ccn2c1C(=O)NCc1ccc(Oc2ccc(OC(F)(F)F)cc2)nc1 [Compound 195, 7-Chloro-2-ethyl-N-((6-(4-(trifluoromethoxy)phenoxy)pyridin-3-yl)methyl)imidazo[1,2-a]pyridine-3-carboxamide]
MIC [1]: 1 to 20 µM (≈ 0.491 to 9.82 µg/mL) | MIC [2]: 1 to 20 µM (≈ 0.491 to 9.82 µg/mL)

CCc1nc2ccc(Cl)cn2c1C(=O)NCc1ccc(Nc2ccc(OC(F)(F)F)cc2)cc1 [Compound 198, 6-Chloro-2-ethyl-N-(4-(4-(trifluoromethoxy)phenylamino)benzyl)imidazo[1,2-a]pyridine-3-carboxamide]
MIC [1]: 1 to 20 µM (≈ 0.489 to 9.78 µg/mL) | MIC [2]: < 1 µM

Cc1nc2cc(-c3ccccc3)ccn2c1C(=O)NCc1ccccc1 [Compound 37, N-Benzyl-2-methyl-7-phenylimidazo[1,2-a]pyridine-3-carboxamide]
MIC [1]: > 20 µM | MIC [2]: > 20 µM

O=C(NCc1ccc(-c2ccccc2)cc1)c1c(C(F)(F)F)nc2ccc(Cl)cn12 [Compound 99, N-(Biphenyl-4-ylmethyl)-6-chloro-2-(trifluoromethyl)imidazo[1,2-a]pyridine-3-carboxamide]
MIC [1]: < 1 µM | MIC [2]: < 1 µM

CCc1nc2ccc(Cl)cn2c1C(=O)N(C)Cc1ccc(Oc2ccc(F)cc2)cc1 [Compound 197, 6-Chloro-2-ethyl-N-(4-(4-fluorophenoxy)benzyl)-N-methylimidazo[1,2-a]pyridine-3-carboxamide]
MIC [1]: 1 to 20 µM (≈ 0.438 to 8.76 µg/mL) | MIC [2]: 1 to 20 µM (≈ 0.438 to 8.76 µg/mL)

CCc1nc2ccc(Cl)cn2c1C(=O)NCc1ccc(-c2ccccc2C(F)(F)F)cc1 [Compound 123, 6-Chloro-2-ethyl-N-((2′-(trifluoromethyl)biphenyl-4-yl)methyl)imidazo[1,2-a]pyridine-3-carboxamide]
MIC [1]: 1 to 20 µM (≈ 0.458 to 9.16 µg/mL) | MIC [2]: < 1 µM

CCc1nc2cc(Cl)ccn2c1C(=O)NCc1ccc(N2CCCCCC2)cc1 [Compound 222, N-(4-(Azepan-1-yl)benzyl)-7-chloro-2-ethylimidazo[1,2-a]pyridine-3-carboxamide]
MIC [1]: < 1 µM | MIC [2]: < 1 µM

COc1ccc(CNC(=O)c2c(C)nc3ccccn23)cc1 [Compound 12, N-(4-Methoxybenzyl)-2-methylimidazo[1,2-a]pyridine-3-carboxamide]
MIC [1]: 1 to 20 µM (≈ 0.295 to 5.91 µg/mL) | MIC [2]: 1 to 20 µM (≈ 0.295 to 5.91 µg/mL)

CCc1nc2ccc(Cl)cn2c1C(=O)NCc1ccc(N2CCC(COC(C)C)CC2)cc1 [Compound 291, 6-Chloro-2-ethyl-N-(4-(4-(isopropoxymethyl)piperidin-1-yl)benzyl)imidazo[1,2-a]pyridine-3-carboxamide]
MIC [1]: < 1 µM | MIC [2]: < 1 µM

Cc1nc2ccccn2c1C(=O)O [Compound 1, 2-Methylimidazo[1,2-a]pyridine-3-carboxylic acid]
MIC [1]: > 20 µM | MIC [2]: > 20 µM
